From PMC4338649 (International Journal of Endocrinology and Metabolism, 2014)

System: infants with central diabetes insipidus
Assay: Pharmacodynamics
Format: in vivo
Conditions: Case 2, IV administration of dDAVP; confirmed diagnosis of CDI

For desmopressin [dDAVP], the “urine output and osmolality after IV administration” value was “Normalization of urine output and osmolality”.
